According to patent US6165986A (Taisho Pharmaceutical Co., Ltd., priority 1997, dated 2000):
≈ marks a conversion by molar mass, not a printed value.

Columns and labels:
Assay type in all cases: cell-based
S. aureus 209P-JC = assay: In vitro antibacterial activity (MIC), S. aureus 209P-JC; conditions: Staphylococcus aureus, sensitive disc media, Japan Society of Chemotherapy method, read-out: MIC value (Minimum Inhibitory Concentration)
Experimental: (§1) The in vitro antibacterial activity of the compound obtained in Example 2 as an example of the compound of the present invention against various experimental bacteria was measured using sensitive disc media (produced by Eiken Chemical Co.) according to the MIC measuring method specified by the Japan Society of Chemotherapy. Clarithromycin was used as a comparative drug.

S. aureus Smith = assay: In vitro antibacterial activity (MIC), S. aureus Smith; conditions: Staphylococcus aureus, sensitive disc media, Japan Society of Chemotherapy method, read-out: MIC value (Minimum Inhibitory Concentration)
Experimental: as §1

S. epidermidis IID 866 = assay: In vitro antibacterial activity (MIC), S. epidermidis IID 866; conditions: Staphylococcus epidermidis, IID866, sensitive disc media, Japan Society of Chemotherapy method, read-out: MIC value (Minimum Inhibitory Concentration)
Experimental: as §1

E. faecalis CSJ 1212 = assay: In vitro antibacterial activity (MIC), E. faecalis CSJ 1212; conditions: Enterococcus faecalis, CSJ1212, sensitive disc media, Japan Society of Chemotherapy method, read-out: MIC value (Minimum Inhibitory Concentration)
Experimental: as §1

S. pneumoniae BM 225 = assay: In vitro antibacterial activity (MIC), S. pneumoniae BM 225; conditions: Streptococcus pneumoniae, BM225, sensitive disc media, Japan Society of Chemotherapy method, read-out: MIC value (Minimum Inhibitory Concentration)
Experimental: as §1

S. pneumoniae BM 211 = assay: In vitro antibacterial activity (MIC), S. pneumoniae BM 211; conditions: Streptococcus pneumoniae, BM211, sensitive disc media, Japan Society of Chemotherapy method, read-out: MIC value (Minimum Inhibitory Concentration)
Experimental: as §1

[1] = tested on: erythromycin-sensitive bacteria; assay: Antibacterial activity against erythromycin-sensitive bacteria
Experimental: as §1

[2] = tested on: erythromycin-resistant bacteria; assay: Antibacterial activity against erythromycin-resistant bacteria
Experimental: as §1

Haemophilus influenzae = assay: Antibacterial activity against Haemophilus influenzae
Experimental: as §1

SMILES | MIC (S. aureus 209P-JC) [µg/mL] | MIC (S. aureus Smith) [µg/mL] | MIC (S. epidermidis IID 866) [µg/mL] | MIC (E. faecalis CSJ 1212) [µg/mL] | MIC (S. pneumoniae BM 225) [µg/mL] | MIC (S. pneumoniae BM 211) [µg/mL] | antibacterial activity (in words) [1] | antibacterial activity (in words) [2] | antibacterial activity (in words) (Haemophilus influenzae)
CC[C@H]1OC(=O)[C@H](C)[C@@H](O[C@H]2C[C@@](C)(OC)[C@@H](O)[C@H](C)O2)[C@H](C)[C@@H](O[C@@H]2O[C@H](C)C[C@H](N(C)C)[C@H]2O)[C@](C)(OC)C[C@@H](C)C(=O)[C@H](C)[C@@H](O)[C@]1(C)O [Comparative drug, Clarithromycin, reference compound] | 0.1 (≈ 0.134 µM) | 0.2 (≈ 0.267 µM) | 0.2 (≈ 0.267 µM) | 0.2 (≈ 0.267 µM) | 50 (≈ 66.8 µM) | > 100 |  |  | 
CC[C@H]1OC(=O)[C@H](C)C(=O)[C@H](C)[C@@H](O[C@@H]2O[C@H](C)C[C@H](N(C)C)[C@H]2O)[C@](C)(OC)C[C@@H](C)C(=O)[C@H](C)[C@H]2N(CCN(C)Cc3cccnc3)C(=O)O[C@]12C [Example 2, 11-[2-[N-methyl-N-(3-pyridylmethyl)amino]ethyl]amino-3,11-dideoxy-3-oxo-5-O-desosaminyl-6-O-methylerythronolide A 11,12-cyclic carbamate] | 0.05 (≈ 0.0657 µM) | 0.1 (≈ 0.131 µM) | 0.1 (≈ 0.131 µM) | 0.05 (≈ 0.0657 µM) | 0.39 (≈ 0.513 µM) | 50 (≈ 65.7 µM) | strong antibacterial activity | strong antibacterial activity | strong antibacterial activity
